Laboratory results: PMC10987480, “Biological and mutational analyses of CXCR4–antagonist interactions and design of new antagonistic analogs” (Bioscience Reports, 2023)
pIC50: −log10 of the molar value.

Experiments:
CXCR4 R30A = biological target: T1, CXCR4 R30A (Homo sapiens, UniProt P61073, R30A); experiment: Competitive binding to CXCR4 mutant R30A (12G5, CHO cells); design: key to the marks not given beside the values; conditions: TM1, class of reduction vs wild-type CXCR4, 12G5 competition, averages of at least three independent experiments
T1 construct: expressed in transfected cells
Description: (§1) Plasmid pcDNA3-CXCR4 and mutated pcDNA3-CXCR4 were extracted and transfected into CHO cells using Lipofectamine 2000 according to the manufacturer’s guidelines. The selective medium containing G418 at a concentration of 1.2 mg/ml was applied to isolate stably transfected cells. CHO cells expressing wild-type CXCR4 and mutant CXCR4 were obtained using fluorescence-activated cell sorting (FACS).
(§2) All of the CXCR4 mutants were prepared using PCR technology. Briefly, pairs of asymmetrical primers containing the desired amino acid mutations (Supplementary Tables S1 and S2), each complementary to opposite strands of the pcDNA3–CXCR4, were designed for amplification by Q5® High-Fidelity DNA polymerase and the generation of mutated constructs. The methylated pcDNA3–CXCR4 templates were digested by DpnI. The mutated pcDNA3–CXCR4 was transformed into competent E. coli TOP10 for long-term storage and amplification.
(§3) The procedure for the CXCR4 competitive binding experiments was published previously. Briefly, CXCR4 antibody 12G5 (250 ng/ml) was incubated with 5 × 10^5 cells and varying concentrations of unlabeled compounds in a final volume of 100 μl of assay buffer (PBS with 0.5% BSA and 0.05% NaN3) in 96-well plates for 40 min on ice, after being washed with assay buffer once. The cells were incubated with FITC-conjugated second antibody IgG for 30 min on ice, then washed with assay buffer three times. The fluorescence intensity was measured for excitation at 485 nm and emission at 535 nm using multimode plate reader (PerkinElmer). The IC50 values were calculated using graphpad Prism 7. Experiments were performed at least three times.

CXCR4 Y45A = biological target: T2, CXCR4 Y45A (Homo sapiens, UniProt P61073, Y45A); experiment: Competitive binding to CXCR4 mutant Y45A (12G5, CHO cells); conditions: TM1, class of reduction vs wild-type CXCR4, 12G5 competition, averages of at least three independent experiments
T2 construct: expressed in transfected cells
Description: as §1, §2, §3

CXCR4 F87A = biological target: T3, CXCR4 F87A (Homo sapiens, UniProt P61073, F87A); experiment: Competitive binding to CXCR4 mutant F87A (12G5, CHO cells); conditions: TM2, class of reduction vs wild-type CXCR4, 12G5 competition, averages of at least three independent experiments
T3 construct: expressed in transfected cells
Description: as §1, §2, §3

CXCR4 W94A = biological target: T4, CXCR4 W94A (Homo sapiens, UniProt P61073, W94A); experiment: Competitive binding to CXCR4 mutant W94A (12G5, CHO cells); conditions: TM2, class of reduction vs wild-type CXCR4, 12G5 competition, averages of at least three independent experiments
T4 construct: expressed in transfected cells
Description: as §1, §2, §3

CXCR4 Y116A = biological target: T5, CXCR4 Y116A (Homo sapiens, UniProt P61073, Y116A); experiment: Competitive binding to CXCR4 mutant Y116A (12G5, CHO cells); conditions: TM3, class of reduction vs wild-type CXCR4, 12G5 competition, averages of at least three independent experiments
T5 construct: expressed in transfected cells
Description: as §1, §2, §3

CXCR4 T117A = biological target: T6, CXCR4 T117A (Homo sapiens, UniProt P61073, T117A); experiment: Competitive binding to CXCR4 mutant T117A (12G5, CHO cells); conditions: TM3, class of reduction vs wild-type CXCR4, 12G5 competition, averages of at least three independent experiments
T6 construct: expressed in transfected cells
Description: as §1, §2, §3

CXCR4 N119A = biological target: T7, CXCR4 N119A (Homo sapiens, UniProt P61073, N119A); experiment: Competitive binding to CXCR4 mutant N119A (12G5, CHO cells); conditions: TM3, class of reduction vs wild-type CXCR4, 12G5 competition, averages of at least three independent experiments
T7 construct: expressed in transfected cells
Description: as §1, §2, §3

CXCR4 D171A = biological target: T8, CXCR4 D171A (Homo sapiens, UniProt P61073, D171A); experiment: Competitive binding to CXCR4 mutant D171A (12G5, CHO cells); conditions: TM4, class of reduction vs wild-type CXCR4, 12G5 competition, averages of at least three independent experiments
T8 construct: expressed in transfected cells
Description: as §1, §2, §3

CXCR4 Q200A = biological target: T9, CXCR4 Q200A (Homo sapiens, UniProt P61073, Q200A); experiment: Competitive binding to CXCR4 mutant Q200A (12G5, CHO cells); design: key to the marks not given beside the values; conditions: TM5, class of reduction vs wild-type CXCR4, 12G5 competition, averages of at least three independent experiments
T9 construct: expressed in transfected cells
Description: as §1, §2, §3

CXCR4 I259A = biological target: T10, CXCR4 I259A (Homo sapiens, UniProt P61073, I259A); experiment: Competitive binding to CXCR4 mutant I259A (12G5, CHO cells); design: key to the marks not given beside the values; conditions: TM6, class of reduction vs wild-type CXCR4, 12G5 competition, averages of at least three independent experiments
T10 construct: expressed in transfected cells
Description: as §1, §2, §3

CXCR4 D262N = biological target: T11, CXCR4 D262N (Homo sapiens, UniProt P61073, D262N); experiment: Competitive binding to CXCR4 mutant D262N (12G5, CHO cells); conditions: TM6, class of reduction vs wild-type CXCR4, 12G5 competition, averages of at least three independent experiments
T11 construct: expressed in transfected cells
Description: as §1, §2, §3

CXCR4 E288Q = biological target: T12, CXCR4 E288Q (Homo sapiens, UniProt P61073, E288Q); experiment: Competitive binding to CXCR4 mutant E288Q (12G5, CHO cells); conditions: TM7, class of reduction vs wild-type CXCR4, 12G5 competition, averages of at least three independent experiments
T12 construct: expressed in transfected cells
Description: as §1, §2, §3

CXCR4 E288A = biological target: T13, CXCR4 E288A (Homo sapiens, UniProt P61073, E288A); experiment: Competitive binding to CXCR4 mutant E288A (12G5, CHO cells); conditions: TM7, class of reduction vs wild-type CXCR4, 12G5 competition, averages of at least three independent experiments
T13 construct: expressed in transfected cells
Description: as §1, §2, §3

CXCR4 E288D = biological target: T14, CXCR4 E288D (Homo sapiens, UniProt P61073, E288D); experiment: Competitive binding to CXCR4 mutant E288D (12G5, CHO cells); conditions: TM7, class of reduction vs wild-type CXCR4, 12G5 competition, averages of at least three independent experiments
T14 construct: expressed in transfected cells
Description: as §1, §2, §3

CXCR4 [1] = conditions: read-out: IC50; cited from earlier work
Text: To understand the receptor–ligand recognition mechanism involving CXCR4 and its antagonists, here in this study we conducted a series of comparative analyses of the biological activities and CXCR4 binding sites of eleven known CXCR4 antagonists, including the three mentioned above, using cell-based bioassays, CXCR4 site-directed mutagenesis and computer-aided molecular modeling. These antagonists studied here were chosen from different representative structural types including both D-peptides (i.e., HC4319, DV1, DV1 dimer, and DV3) and a representative counterpart L-peptide (i.e., V1) derived ...

CXCR4 [2] = biological target: CXCR4 (Homo sapiens, UniProt P61073); experiment: Competitive CXCR4 binding assay (12G5 antibody probe), wild-type CXCR4 transfected CHO cells; design: expressed in transfected cells; Competitive receptor binding activity, wild-type CXCR4 (WT): key to the marks not given beside the values; conditions: class relative to wild-type; 12G5 competition, stably transfected CHO cells; averages of at least three independent experiments
Description: The CXCR4-specific antibody, 12G5 was used as a probe for the competitive CXCR4 binding assay to evaluate the binding activity of CXCR4 antagonists.
Figure 1 Competitive CXCR4 binding curves of eleven CXCR4 antagonists The CXCR4 transfected CHO cells were incubated with different concentrations of antagonists and 250 ng/ml 12G5 antibody. The CXCR4-binding 12G5 antibody was recognized by FITC-conjugated anti-IgG second antibody. The cells treated with only second antibody were used as a negative control (0%) while cells treated with both 12G5 antibody and second antibody were used as a positive control (100%). Cells treated with CXCR4 antagonists were calculated in percentage relative to the positive and negative controls. The data were averages of at least three independent experiments and shown as mean ± standard error of the mean (S.E.M.).
as §3

T12 sequence (P61073 whole entry E288Q): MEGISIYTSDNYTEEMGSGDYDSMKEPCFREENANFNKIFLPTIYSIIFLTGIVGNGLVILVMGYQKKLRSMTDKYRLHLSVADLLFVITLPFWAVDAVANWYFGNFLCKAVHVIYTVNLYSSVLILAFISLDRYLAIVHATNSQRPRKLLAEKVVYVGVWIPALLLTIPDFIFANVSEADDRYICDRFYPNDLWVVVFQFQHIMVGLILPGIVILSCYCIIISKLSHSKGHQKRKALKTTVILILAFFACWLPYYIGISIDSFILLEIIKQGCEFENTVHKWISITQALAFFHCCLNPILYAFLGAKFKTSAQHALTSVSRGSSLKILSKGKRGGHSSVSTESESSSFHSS
T14 sequence (P61073 whole entry E288D): as the sequence (P61073 whole entry E288Q) above, with Q288D counted along it
T6 sequence (P61073 whole entry T117A): as the sequence (P61073 whole entry E288Q) above, with T117A, Q288E counted along it
T2 sequence (P61073 whole entry Y45A): as the sequence (P61073 whole entry E288Q) above, with Y45A, Q288E counted along it
T10 sequence (P61073 whole entry I259A): as the sequence (P61073 whole entry E288Q) above, with I259A, Q288E counted along it
Sequence of CXCR4 (Homo sapiens, UniProt P61073) (P61073 whole entry): as the sequence (P61073 whole entry E288Q) above, with Q288E counted along it
T7 sequence (P61073 whole entry N119A): as the sequence (P61073 whole entry E288Q) above, with N119A, Q288E counted along it
T11 sequence (P61073 whole entry D262N): as the sequence (P61073 whole entry E288Q) above, with D262N, Q288E counted along it
T9 sequence (P61073 whole entry Q200A): as the sequence (P61073 whole entry E288Q) above, with Q200A, Q288E counted along it
T5 sequence (P61073 whole entry Y116A): as the sequence (P61073 whole entry E288Q) above, with Y116A, Q288E counted along it
T13 sequence (P61073 whole entry E288A): as the sequence (P61073 whole entry E288Q) above, with Q288A counted along it
T1 sequence (P61073 whole entry R30A): as the sequence (P61073 whole entry E288Q) above, with R30A, Q288E counted along it
T4 sequence (P61073 whole entry W94A): as the sequence (P61073 whole entry E288Q) above, with W94A, Q288E counted along it
T8 sequence (P61073 whole entry D171A): as the sequence (P61073 whole entry E288Q) above, with D171A, Q288E counted along it
T3 sequence (P61073 whole entry F87A): as the sequence (P61073 whole entry E288Q) above, with F87A, Q288E counted along it

Sequence: LGASWHRPDKCCLGYQKRPLPQVLLSSWYPTSQLCSKPGVIFLTKRGRQVCADKSKDWVKKLMQQLPVTAR [vMIP-II, viral macrophage-inflammatory protein-II, full-length natural chemokine antagonist produced by human herpesvirus-8; recombinant from Peprotech]
- Competitive receptor binding activity, CXCR4 R30A (CXCR4 R30A): +++
- Competitive receptor binding activity, CXCR4 Y45A (CXCR4 Y45A): +++
- Competitive receptor binding activity, CXCR4 F87A (CXCR4 F87A): + (30–60% reduction compared with wild-type CXCR4)
- Competitive receptor binding activity, CXCR4 W94A (CXCR4 W94A): + (30–60% reduction compared with wild-type CXCR4)
- Competitive receptor binding activity, CXCR4 Y116A (CXCR4 Y116A): ++ (10–29% reduction compared with wild-type CXCR4)
- Competitive receptor binding activity, CXCR4 T117A (CXCR4 T117A): +++
- Competitive receptor binding activity, CXCR4 N119A (CXCR4 N119A): ++ (10–29% reduction compared with wild-type CXCR4)
- Competitive receptor binding activity, CXCR4 D171A (CXCR4 D171A): +++
- Competitive receptor binding activity, CXCR4 Q200A (CXCR4 Q200A): +++
- Competitive receptor binding activity, CXCR4 I259A (CXCR4 I259A): +++
- Competitive receptor binding activity, CXCR4 D262N (CXCR4 D262N): +++
- Competitive receptor binding activity, CXCR4 E288Q (CXCR4 E288Q): ++ (10–29% reduction compared with wild-type CXCR4)
- Competitive receptor binding activity, CXCR4 E288A (CXCR4 E288A): +++
- Competitive receptor binding activity, CXCR4 E288D (CXCR4 E288D): +++
- pIC50 (CXCR4 [1]): 8.24
- Competitive receptor binding activity, wild-type CXCR4 (WT) (CXCR4 [2]): +++
